This note sets out measurements from patent publication US12479799B2, “Bioconjugation reagent and methods” (Universiteit Gent, priority 2019, dated 2025).

A short description of the data set: Glutathione exchange experiment (stability towards competing sulfhydryl groups, RP-HPLC). The class given is physicochemical. The following applies: 0.1 M sodium phosphate buffer pH 7, 10 equiv of glutathione, 37° C., 96 hours. On the procedure:
This example provides a stability experiment of the compound of the invention towards competing sulfhydryl groups.
Compound 4aa was incubated in a 0.1 M sodium phosphate buffer at pH 7 with 10 equiv of glutathione, incubated at 37° C. and shaken for 96 hours. The stability was checked using RP-HPLC [Phenomenex Luna C18 column using a flow rate of 1 mL/min; H2O method: 3 minutes column flushing with 100% H2O, then a gradient from 0 to 100% ACN in 20 minutes, followed by 5 minutes of flushing with 100% ACN]. […] Representative HPLC chromatogram is shown (FIG. 7).

As for “1-benzyl-5-hydroxy-4-((2-hydroxyethyl)thio)-5-methylpyrrolidin-2-one [Compound 4aa]”, the GSH exchange reaction result is given as “no GSH exchange reaction takes place”.

As to `CC1(O)C(SCCO)CC(=O)N1Cc1ccccc1` (centres unmarked) [4′aa, 1-benzyl-5-hydroxy-4-((2-hydroxyethyl)thio)-5-methylpyrrolidin-2-one], the “stability of conjugated compound in presence of glutathione” value is given as “stable”.
